# Experiments:
# Format in all cases: cell-based
# [1] = tested on: colistin-sensitive Pseudomonas aeruginosa strain; assay: PTA staining / SEM backscattered electron image analysis of colistin-treated bacteria over time (FIG. 7); conditions: colistin 2 mg/L, 37°C, initial concentration 10^6/ml
# Procedure: (§1) A Pseudomonas aeruginosa strain whose colistin sensitivity is known from an MIC value measured by a method of related art and a Pseudomonas aeruginosa strain whose colistin resistance is known are used. A bacterial solution suspended in a medium at initial concentration of 10^6/ml is treated with colistin of 2 mg/L, which is concentration that distinguishes between sensitive bacteria and resistant bacteria by the method of related art, is treated and cultured at 37° C., and a certain amount of the bacterial solution is sampled over time.
# A polycarbonate track-etched membrane having a hole diameter of 0.2 μm is used as specimen equipment for the SEM observation of bacteria, and bacteria are uniformly collected in a certain area on the membrane. Conductivity is given to the specimen by pre-vaporizing platinum-palladium on a surface of the membrane.
# After washing a medium component on a bacterial collection surface with physiological saline, bacteria are treated and fixed for 5 minutes with a glutaraldehyde fixing solution of 2.5% having a protein cross-linking effect in order to prevent the morphological change of the bacteria. After washing the excess fixing solution with water, the bacteria are treated with the PTA aqueous solution having the weight concentration of 10% for 2 minutes and stained. After washing the excess stain with water, the bacteria are dried on the track-etched membrane to form a specimen for the SEM observation.
# SEM observation conditions are set to an acceleration voltage of 5 kV, backscattered electron detection, and magnification of 7,000 times. […]
# (§2) Next, SEM observation is performed on each specimen from which the series of backscattered electron image (701) is obtained and a specimen in the control group prepared at the same timing, and twenty-five images per specimen and images of 300 to 500 bacterial cells are acquired. The number of images taken and the number of bacterial cells to be imaged are not limited to the above-described number as long as reproducibility of quantitative analysis can be ensured. […]
# [2] = tested on: Pseudomonas aeruginosa strain; assay: Electronic staining with PTA aqueous solution and SEM observation after antibacterial agent treatment (FIG. 6); conditions: cultured at 37°C for 30 minutes, 10% PTA aqueous solution, 5 kV backscattered electron image
# Procedure: As an example, in FIG. 6, a Pseudomonas aeruginosa strain is used as a material, bacteria in a control group not treated with the antibacterial agent and bacteria in a test group treated with antibacterial agent colistin are cultured at 37° C. for 30 minutes, the bacteria are collected on a track-etched membrane and fixed with glutaraldehyde of 2.5%, a specimen is prepared by performing electronic staining for 2 minutes by using a PTA aqueous solution having weight concentration of 10% as a stain and a platinum blue aqueous solution as a comparison, and a backscattered electron image is obtained by SEM observation at an acceleration voltage of 5 kV.
# In the specimen stained with the PTA aqueous solution, an image of bacteria having low image brightness is observed in the control group, and an image of bacteria having high image brightness is observed in the test group. On the other hand, in the specimen stained with the platinum blue aqueous solution, the image brightness of the bacteria in both the control group and the test group is high, and no significant difference is observed between the control group and the test group.
# [3] = tested on: colistin-resistant Pseudomonas aeruginosa strain; assay: PTA staining / SEM backscattered electron image analysis of colistin-treated bacteria over time; conditions: colistin 2 mg/L, 37°C, after 60 minutes
# Procedure: as §1
# A polycarbonate track-etched membrane having a hole diameter of 0.2 μm is used as specimen equipment for the SEM observation of bacteria, and bacteria are uniformly collected in a certain area on the membrane. Conductivity is given to the specimen by pre-vaporizing platinum-palladium on a surface of the membrane. […]
# as §2
substance,measurement,setting,value
colistin,ratio of the microbe 1 (corresponds to viability),[1]; after 8 minutes,80%
same,ratio of the microbe 1 (corresponds to viability),[1]; after 30 minutes,60%
same,ratio of the microbe 1 (corresponds to viability),[1]; after 60 minutes,0%
same,PTA staining intensity / image brightness of treated bacteria,[2],strong PTA staining
same,ratio of the microbe 1 (corresponds to viability),[3],about 95%

# Reference: patent publication US20250066835A1 (priority 2021, published 2025)
